Patent US20170191057A1, “RNA EDITING BIOMARKERS FOR DIAGNOSIS, PHARMACOLOGICAL SCREENING AND PROGNOSTICATION IN CANCER” (REGENTS OF THE UNIVERSITY OF CALIFORNIA, priority 2014, published 2017)

Experiments:
ADAR1 = experiment: qRT-PCR of total ADAR1 levels after 8-azaadenosine treatment; format: cell-based, human; settings: cord blood, ABM, and blast crisis cells; FIG. 21A
Method: (A) 8-azaadenosine treatment results in reduced total ADAR1 levels by qRT-PCR, and (B) decreased RNA editing in APOBEC3D (Sites 1 & 2) by direct sequencing.
Cell lines, lentivirus-transduced primary hematopoietic cells, or FACS-purified primary cells were harvested in lysis buffer (Qiagen). RNA was purified using RNeasy extraction kits with a DNase (Qiagen) incubation step to digest any trace genomic DNA present. For RNA extraction from cell line lysates, 1-2×10^6 cells were extracted using RNeasy mini columns, and for primary cells, 5-10×10^4 cells were lysed and extracted using RNeasy micro columns. Genomic DNA was purified from equal numbers of cells lysed separately using the QIAamp DNA Blood Mini Kit (Qiagen) including an RNase A incubation step to digest any RNA present (Qiagen). RNA was stored at −80° C. and gDNA stored at −20° C. Immediately prior to reverse transcription of RNA samples, nucleic acid concentrations were quantified on a NanoDrop 2000 spectrophotometer (Thermo Scientific), and purity was considered acceptable if A260/A280 values were >1.8. […]

[1] = tested on: RNA editing in APOBEC3D (Sites 1 & 2); experiment: Direct sequencing of CSC-specific RNA editing biomarkers in APOBEC3D after 8-azaadenosine treatment; format: cell-based, human
Method: As proof-of-concept that small molecule inhibitors could block RNA editing activity, CD34^+ cells from a CML blast crisis patient were treated with vehicle or 1 μM 8-azaadenosine (Veliz et al., JACS 2003) for 24 hours and co-cultured on humanized bone marrow stromal cells (SL/M2) for 5 days. […] Thus, RESSq-PCR and RNA editing inhibitors is an allele-specific diagnostic assay that can be used for detection of primate-specific RNA editing events in cancer stem cells.
For PCR and targeted Sanger sequencing analysis, 1-2 μL of first-strand cDNA templates were prepared for PCR in 25-50 μL reaction volumes using the high-fidelity KOD Hot Start DNA Polymerase kit according to the manufacturer's instructions (EMD Millipore, Temecula, Calif.). “Outer” primers (Additional file 2: Table S2) used for sequencing produce predicted amplicons of approximately 150-250 nucleotides in length, and flank each editing site with approximately 50-100 bp on either side of the editing site to facilitate successful sequencing analysis. […] Sequence chromatograms were analyzed using 4Peaks (by A. Griekspoor and Tom Groothuis) and peak heights calculated using ImageJ (NIH). For RNA editing analysis of sequencing chromatograms, ratios of edited/WT peaks were calculated using the raw peak amplitude of each sequence trace.

Nc1ncnc2c1nnn2[C@@H]1O[C@H](CO)[C@@H](O)[C@H]1O [8-azaadenosine]
total ADAR1 levels by qRT-PCR (ADAR1): reduced
edit/wild-type sequence ratios of two CSC-specific RNA editing biomarkers in APOBEC3D ([1]; CD34+ cells from a CML blast crisis patient, 1 μM for 24 hours vs vehicle, co-cultured on SL/M2 stromal cells for 5 days): reduction
RNA editing in APOBEC3D (Sites 1 & 2) by direct sequencing ([1]; cord blood, ABM, and blast crisis cells, FIG. 21B): decreased
